According to patent US6143492A, “Optical molecular sensors for cytochrome P450 activity” (Aurora Biosciences Corporation, priority 1999, dated 2000):
“And” between values parts separate entries of the source, which are not always exact repeats. Equal values may be shown once.

Columns and labels:
CYP 3A4 = target: T1, CYP 3A4 (Homo sapiens, UniProt P08684); experiment: Kinetics of fluorogenic substrates with CYP 3A4; format: biochemical
T1 construct: NADPH regenerating system
Description: Whichever of the four abstractable hydrogen atoms (designated H^1 and H^2 in this representation of BOMR) is removed in the initial reaction step, with reference to Reaction Scheme 1 of FIG. 1, the hydroxylation product will spontaneously decompose to the free resorufin dye. In addition, the benzyloxy group, attached to the carbon carrying the two hydrogens designated H^2, contributes an inductive electronic effect on that carbon, which can stabilize the radical formed during abstraction of one of the H^2 hydrogens by a cytochrome P450.
Optimization of assay conditions was, and is preferably, accomplished through statistically validated Design of Experiments methodologies, using the commercial software package "Design-Expert®" produced by Stat-Ease® Inc. The data shown in FIGS. 4 and 5 were obtained with initial optimization.
For further understanding these terms in the context of this invention, attention is directed to FIG. 4 and the analysis of FIG. 4.

CYP 2C9 = CYP 2C9 (Homo sapiens, UniProt P11712); experiment: Kinetics of fluorogenic substrates with CYP 2C9; format: biochemical; conditions: for conversion to the same fluorescent product vs the most closely structurally-related substrate / kcat / kcat/Km / type of kinetics: CYP 2C9; for v (1.25 uM), turnover rate at 1.25 μM: CYP 2C9, substrate 1.25 uM; for v (10 uM), turnover rate at 10 μM: CYP 2C9, substrate 10 uM
Chain of CYP 2C9 (P11712 whole entry): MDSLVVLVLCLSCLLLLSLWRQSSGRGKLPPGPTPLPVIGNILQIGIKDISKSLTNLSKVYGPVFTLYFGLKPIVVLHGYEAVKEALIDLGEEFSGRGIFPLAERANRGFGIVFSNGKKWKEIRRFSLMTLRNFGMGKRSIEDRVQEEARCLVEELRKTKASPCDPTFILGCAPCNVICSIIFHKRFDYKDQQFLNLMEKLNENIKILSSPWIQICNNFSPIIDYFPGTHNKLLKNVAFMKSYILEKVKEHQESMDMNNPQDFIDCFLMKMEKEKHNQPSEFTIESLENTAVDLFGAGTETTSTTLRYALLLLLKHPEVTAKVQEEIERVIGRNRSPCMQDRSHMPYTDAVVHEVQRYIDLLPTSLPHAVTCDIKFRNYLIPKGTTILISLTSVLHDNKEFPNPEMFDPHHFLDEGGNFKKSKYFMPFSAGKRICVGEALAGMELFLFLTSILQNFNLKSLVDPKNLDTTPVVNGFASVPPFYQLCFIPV

CYP 2D6 = CYP 2D6 (Homo sapiens, UniProt P10635); experiment: Kinetics of fluorogenic substrates with CYP 2D6; format: biochemical; conditions: for kcat / kcat/Km / type of kinetics: CYP 2D6; for v (1.25 uM), turnover rate at 1.25 μM: CYP 2D6, substrate 1.25 uM; for v (10 uM), turnover rate at 10 μM: CYP 2D6, substrate 10 uM; for conversion to the same fluorescent product vs the most closely structurally-related substrate: CYP 3A4 and CYP 2D6, Table 8
Chain of CYP 2D6 (P10635 whole entry): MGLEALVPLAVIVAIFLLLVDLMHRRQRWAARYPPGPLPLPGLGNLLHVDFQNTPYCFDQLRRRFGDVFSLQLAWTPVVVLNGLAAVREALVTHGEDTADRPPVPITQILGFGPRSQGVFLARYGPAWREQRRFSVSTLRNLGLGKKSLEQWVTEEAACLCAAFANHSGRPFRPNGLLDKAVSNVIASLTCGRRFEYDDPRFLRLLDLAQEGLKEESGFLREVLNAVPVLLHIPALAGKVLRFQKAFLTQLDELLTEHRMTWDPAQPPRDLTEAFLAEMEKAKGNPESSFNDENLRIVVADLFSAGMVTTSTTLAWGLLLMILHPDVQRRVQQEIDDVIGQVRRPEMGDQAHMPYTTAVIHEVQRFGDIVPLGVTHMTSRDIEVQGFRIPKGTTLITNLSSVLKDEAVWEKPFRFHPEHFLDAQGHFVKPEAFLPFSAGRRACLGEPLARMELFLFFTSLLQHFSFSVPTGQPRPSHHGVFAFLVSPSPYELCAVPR

CYP 2C19 = CYP 2C19 (Homo sapiens, UniProt P33261); experiment: Kinetics of fluorogenic substrates with CYP 2C19; format: biochemical; conditions: for v (1.25 uM), turnover rate at 1.25 μM: CYP 2C19, substrate 1.25 uM; for v (10 uM), turnover rate at 10 μM: CYP 2C19, substrate 10 uM
Chain of CYP 2C19 (P33261 whole entry): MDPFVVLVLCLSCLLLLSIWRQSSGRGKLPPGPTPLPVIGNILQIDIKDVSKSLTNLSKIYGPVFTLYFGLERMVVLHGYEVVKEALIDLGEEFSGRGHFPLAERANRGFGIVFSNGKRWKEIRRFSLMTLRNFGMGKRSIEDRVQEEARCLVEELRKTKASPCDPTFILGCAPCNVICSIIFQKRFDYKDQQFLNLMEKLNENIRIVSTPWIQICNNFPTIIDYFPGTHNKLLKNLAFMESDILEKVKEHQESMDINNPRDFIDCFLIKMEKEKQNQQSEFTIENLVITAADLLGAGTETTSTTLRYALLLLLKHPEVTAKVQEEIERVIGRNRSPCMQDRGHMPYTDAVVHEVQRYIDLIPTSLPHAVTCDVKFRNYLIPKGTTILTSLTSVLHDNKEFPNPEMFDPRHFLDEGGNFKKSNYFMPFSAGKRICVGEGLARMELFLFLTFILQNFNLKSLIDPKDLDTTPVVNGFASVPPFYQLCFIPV

CYP 1A2 = target: T2, CYP 1A2 (Homo sapiens, UniProt P05177); experiment: Kinetics of fluorogenic substrates with CYP 1A2; format: biochemical; conditions: for v (1.25 uM), turnover rate at 1.25 μM: CYP 1A2, substrate 1.25 uM; for v (10 uM), turnover rate at 10 μM: CYP 1A2, substrate 10 uM
T2 sequence (P05177 1-516): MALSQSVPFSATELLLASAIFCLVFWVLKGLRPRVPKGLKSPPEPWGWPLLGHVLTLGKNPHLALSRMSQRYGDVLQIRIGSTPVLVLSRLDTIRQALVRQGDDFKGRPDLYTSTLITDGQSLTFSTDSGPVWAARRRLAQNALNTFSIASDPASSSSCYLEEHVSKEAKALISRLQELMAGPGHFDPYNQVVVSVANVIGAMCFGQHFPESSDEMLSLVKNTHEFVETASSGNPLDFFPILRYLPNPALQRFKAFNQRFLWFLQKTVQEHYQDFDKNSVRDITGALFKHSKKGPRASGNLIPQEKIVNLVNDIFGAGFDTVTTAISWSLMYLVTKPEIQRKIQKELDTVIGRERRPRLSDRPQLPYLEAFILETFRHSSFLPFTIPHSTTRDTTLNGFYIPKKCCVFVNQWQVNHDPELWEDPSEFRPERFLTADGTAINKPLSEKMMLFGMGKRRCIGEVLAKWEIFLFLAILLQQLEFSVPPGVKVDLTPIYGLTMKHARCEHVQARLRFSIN

CYP 2B6 = target: T3, CYP 2B6 (Homo sapiens, UniProt P20813); conditions: for Km: cyp 2b6
T3 sequence (P20813 1-491): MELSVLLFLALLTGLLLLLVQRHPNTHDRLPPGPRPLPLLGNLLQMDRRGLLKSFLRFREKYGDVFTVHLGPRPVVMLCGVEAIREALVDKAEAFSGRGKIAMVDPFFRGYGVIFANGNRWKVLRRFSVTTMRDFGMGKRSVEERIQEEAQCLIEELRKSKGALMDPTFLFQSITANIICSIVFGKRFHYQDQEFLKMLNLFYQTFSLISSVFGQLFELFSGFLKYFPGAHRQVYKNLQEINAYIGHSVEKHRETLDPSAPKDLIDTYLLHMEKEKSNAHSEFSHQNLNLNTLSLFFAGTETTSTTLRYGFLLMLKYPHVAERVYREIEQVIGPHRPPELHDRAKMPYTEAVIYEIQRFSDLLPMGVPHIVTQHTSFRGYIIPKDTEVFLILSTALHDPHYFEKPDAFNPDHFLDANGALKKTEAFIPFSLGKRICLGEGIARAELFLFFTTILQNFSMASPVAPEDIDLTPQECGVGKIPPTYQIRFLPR

T1 sequence (P08684 whole entry): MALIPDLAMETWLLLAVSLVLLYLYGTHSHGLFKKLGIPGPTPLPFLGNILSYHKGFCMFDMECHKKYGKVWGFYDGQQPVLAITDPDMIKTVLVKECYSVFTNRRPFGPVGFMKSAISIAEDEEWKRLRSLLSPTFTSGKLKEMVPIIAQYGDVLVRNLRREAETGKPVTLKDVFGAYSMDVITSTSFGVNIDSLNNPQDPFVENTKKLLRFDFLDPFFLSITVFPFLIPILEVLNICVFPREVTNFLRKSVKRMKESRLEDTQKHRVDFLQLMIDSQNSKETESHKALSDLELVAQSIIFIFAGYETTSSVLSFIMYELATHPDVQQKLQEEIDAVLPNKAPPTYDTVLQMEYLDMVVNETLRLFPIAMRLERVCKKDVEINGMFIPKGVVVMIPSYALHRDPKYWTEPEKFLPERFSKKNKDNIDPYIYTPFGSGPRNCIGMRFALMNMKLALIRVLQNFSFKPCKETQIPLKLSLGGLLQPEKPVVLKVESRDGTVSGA

`COc1ccc(COc2ccc3c(C(F)(F)F)cc(=O)oc3c2)cc1` [MOBFC] was tested, and the kcat (CYP 3A4; CYP 3A4) was 0.7 min⁻¹, the kcat/Km (CYP 3A4; CYP 3A4) was 897 s⁻¹ M⁻¹ and the type of kinetics (CYP 3A4; CYP 3A4) was “Michaelis-”. For the same compound, the “v (1.25 uM), turnover rate at 1.25 μM” value (CYP 3A4; CYP 3A4, substrate 1.25 uM) was 0.0214 min⁻¹ and 0.02 min⁻¹, the “v (10 uM), turnover rate at 10 μM” value (CYP 3A4; CYP 3A4, substrate 10 uM) was 0.3453 min⁻¹ and 0.35 min⁻¹ and the “conversion to the same fluorescent product vs the most closely structurally-related substrate” value (CYP 2C9) was “more efficient conversion”. The kcat (CYP 2C9) was 0.29 min⁻¹ and 0.3 min⁻¹, the kcat/Km (CYP 2C9) was 628 s⁻¹ M⁻¹ and the type of kinetics (CYP 2C9) was “Michaelis-”. For the same compound, the “v (1.25 uM), turnover rate at 1.25 μM” value (CYP 2C9) was 0.02 min⁻¹, the “v (10 uM), turnover rate at 10 μM” value (CYP 2C9) was 0.188 min⁻¹ and 0.19 min⁻¹ and the kcat (CYP 2D6) was 0.6 min⁻¹. The kcat/Km (CYP 2D6) was 2067 s⁻¹ M⁻¹, the type of kinetics (CYP 2D6) was “Michaelis-” and the “v (1.25 uM), turnover rate at 1.25 μM” value (CYP 2D6) was 0.09 min⁻¹. The “v (10 uM), turnover rate at 10 μM” value (CYP 2D6) was 0.49 min⁻¹ and the “conversion to the same fluorescent product vs the most closely structurally-related substrate” value (CYP 2D6) was “more efficient conversion”.

`CCOCOc1ccc2cc(C#N)c(=O)oc2c1` [EOMCC] was tested, and the “conversion to the same fluorescent product vs the most closely structurally-related substrate” value (CYP 2C19; CYP 2C19) was “more efficient conversion”, the kcat (CYP 2C19; CYP 2C19) was 5.7 min⁻¹ and the kcat/Km (CYP 2C19; CYP 2C19) was 5723 s⁻¹ M⁻¹. For the same compound, the type of kinetics (CYP 2C19; CYP 2C19) was “Michaelis-”, the “v (1.25 uM), turnover rate at 1.25 μM” value (CYP 2C19) was 0.34 min⁻¹ and the “v (10 uM), turnover rate at 10 μM” value (CYP 2C19) was 2.22 min⁻¹. The “conversion to the corresponding fluorescent product vs 3CEC” value (CYP 1A2; CYP 1A2) was “a little bit more efficiently”, the kcat (CYP 1A2; CYP 1A2) was 21.0 min⁻¹ and the kcat/Km (CYP 1A2; CYP 1A2) was 31818 s⁻¹ M⁻¹. The type of kinetics (CYP 1A2; CYP 1A2) was “Michaelis-”, the “v (1.25 uM), turnover rate at 1.25 μM” value (CYP 1A2) was 1.77 min⁻¹ and the “v (10 uM), turnover rate at 10 μM” value (CYP 1A2) was 9.95 min⁻¹.

With `COc1ccc2c(C(F)(F)F)cc(=O)oc2c1` [MFC, 7-Methoxy-4-trifluoromethylcoumarin, reference compound] the kcat (CYP 2C9) was 0.4 min⁻¹, the type of kinetics (CYP 2C9) was “Michaelis-” and the “v (1.25 uM), turnover rate at 1.25 μM” value (CYP 2C9) was 0.01 min⁻¹. For the same compound, the “v (10 uM), turnover rate at 10 μM” value (CYP 2C9) was 0.03 min⁻¹, the kcat (CYP 2D6) was 0.3 min⁻¹ and the type of kinetics (CYP 2D6) was “Michaelis-”. The “v (1.25 uM), turnover rate at 1.25 μM” value (CYP 2D6) was 0.03 min⁻¹, the “v (10 uM), turnover rate at 10 μM” value (CYP 2D6) was 0.10 min⁻¹ and the kcat (CYP 2B6) was 2.9 min⁻¹. For the same compound, the kcat/Km (CYP 2B6) was 34524 s⁻¹ M⁻¹, the type of kinetics (CYP 2B6) was “Michaelis-” and the “v (1.25 uM), turnover rate at 1.25 μM” value (CYP 2B6) was 1.63 min⁻¹. The “v (10 uM), turnover rate at 10 μM” value (CYP 2B6) was 2.53 min⁻¹ and the Km (CYP 2B6) was 1400 nM.

For `CCOc1ccc2cc(C#N)c(=O)oc2c1` [3CEC, 3-Cyano-7-ethoxycoumarin, reference compound], the kcat (CYP 2C19; CYP 2C19) was 1.7 min⁻¹, the kcat/Km (CYP 2C19; CYP 2C19) was 671 s⁻¹ M⁻¹ and the type of kinetics (CYP 2C19; CYP 2C19) was “Michaelis-”. The “v (1.25 uM), turnover rate at 1.25 μM” value (CYP 2C19) was 0.05 min⁻¹, the “v (10 uM), turnover rate at 10 μM” value (CYP 2C19) was 0.34 min⁻¹ and the kcat (CYP 1A2; CYP 1A2) was 44.0 min⁻¹. The kcat/Km (CYP 1A2; CYP 1A2) was 28205 s⁻¹ M⁻¹, the type of kinetics (CYP 1A2; CYP 1A2) was “Michaelis-” and the “v (1.25 uM), turnover rate at 1.25 μM” value (CYP 1A2) was 1.73 min⁻¹. The “v (10 uM), turnover rate at 10 μM” value (CYP 1A2) was 12.55 min⁻¹.

In the case of `COc1ccc(COc2ccc3nc4ccc(=O)cc-4oc3c2)cc1` [MOBR, Paramethoxybenzylresorufin], the type of kinetics (CYP 2C19; CYP 2C19) is reported as “not MMK”, the “v (1.25 uM), turnover rate at 1.25 μM” value (CYP 2C19) is reported as 1.26 min⁻¹ and the “v (10 uM), turnover rate at 10 μM” value (CYP 2C19) is reported as 0.69 min⁻¹. For the same compound, the “conversion to the same fluorescent product vs the most closely structurally-related substrate” value (CYP 2C9) was “more efficient conversion”, the kcat (CYP 2C9) was 0.0 min⁻¹ and the kcat/Km (CYP 2C9) was 952 s⁻¹ M⁻¹. For the same compound, the type of kinetics (CYP 2C9) was “Michaelis-”, the “v (1.25 uM), turnover rate at 1.25 μM” value (CYP 2C9) was 0.02 min⁻¹ and the “v (10 uM), turnover rate at 10 μM” value (CYP 2C9) was 0.02 min⁻¹. For the same compound, the kcat/Km (CYP 2D6) was 263 s⁻¹ M⁻¹, the type of kinetics (CYP 2D6) was “Michaelis-” and the “v (1.25 uM), turnover rate at 1.25 μM” value (CYP 2D6) was 0.0185 min⁻¹ and 0.02 min⁻¹. The “v (10 uM), turnover rate at 10 μM” value (CYP 2D6) was 0.0409 min⁻¹ and 0.04 min⁻¹, the “conversion to the same fluorescent product vs the most closely structurally-related substrate” value (CYP 2D6) was “more efficient conversion” and the kcat (CYP 2B6) was 0.4 min⁻¹. For the same compound, the kcat/Km (CYP 2B6) was 58333 s⁻¹ M⁻¹, the type of kinetics (CYP 2B6) was “Michaelis-” and the “v (1.25 uM), turnover rate at 1.25 μM” value (CYP 2B6) was 0.08 min⁻¹. For the same compound, the “v (10 uM), turnover rate at 10 μM” value (CYP 2B6) was 0.10 min⁻¹ and the Km (CYP 2B6) was 100 nM.
